Laboratory results: PubChem BioAssay (NCI)
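Cells were grown in 96-well plates and exposed to each compound for 48 hours at five concentrations; endpoints were interpolated linearly between bracketing concentrations, or set to the highest concentration if not reached. The concentration for full growth arrest is given as TGI.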

Columns and labels:
Assay in all cases: inhibition of tumour cell growth, NCI panel, 48 h
IGROV1 ovarian = tested on: IGROV1 ovarian
MCF7 breast = tested on: MCF7 breast
NCI/ADR-RES ovarian = tested on: NCI/ADR-RES ovarian
SN12C renal = tested on: SN12C renal
TK-10 renal = tested on: TK-10 renal
SK-MEL-2 melanoma = tested on: SK-MEL-2 melanoma
M14 melanoma = tested on: M14 melanoma
OVCAR-3 ovarian = tested on: OVCAR-3 ovarian
U251 CNS = tested on: U251 CNS
HT29 colon = tested on: HT29 colon

Structure (SMILES) | TGI (IGROV1 ovarian) [µM] | TGI (MCF7 breast) [µM] | TGI (NCI/ADR-RES ovarian) [µM] | TGI (SN12C renal) [µM] | TGI (TK-10 renal) [µM] | TGI (SK-MEL-2 melanoma) [µM] | TGI (M14 melanoma) [µM] | TGI (OVCAR-3 ovarian) [µM] | TGI (U251 CNS) [µM] | TGI (HT29 colon) [µM]
CC(C)C1CC[C@H](C)C[C@@H]1OC(=O)C(C(=O)O[C@H]1C[C@@H](C)CCC1C(C)C)C(O)[C@@H]1OC(C)(C)O[C@H]1C1COC(C)(C)O1 (stereo not given in full) | 30.4 | 22.6 | 45.4 | 30 | 37.1 | 38.2 | 37.8 | 36.2 | 27.2 | 32.2
COc1ccc2cc(C(=O)NCCCNC(=O)c3ccc4cc(OC)ccc4c3)ccc2c1 | > 100 | > 100 | > 100 | > 100 | > 100 | > 100 | > 100 | > 100 | > 85.4 | > 100
CC1(CC2=C(C(=O)NCCO[Si](C)(C)C(C)(C)C)C3(OCCO3)C2=O)OCCO1 | > 100 | > 100 | > 100 | > 100 | > 100 | > 100 | > 100 | > 100 | > 100 | > 100
COc1cc2c(cc1OCCCC(=O)Nc1cc(C(=O)NCCCN(C)C)n(C)n1)N=CC1CCCN1C2=O (stereo not given) | > 23.5 | > 80.7 | > 74.4 | > 24.6 | 14.9 | 32.7 | > 27.6 | 74.2 | > 20.7 | 18.2
